From US20190365907A1, “ZWITTERIONIC POLYMER-INSULIN COMPOSITIONS AND RELATED METHODS” (Wayne State University, priority 2017, published 2019)

How the values were obtained:
[1] = tested on: streptozotocin (STZ) induced diabetic mice; experiment: Blood glucose lowering after tail vein injection in STZ-induced diabetic mice; type: in vivo
Description: The mice were fasted during the glucose testing period.
The injection dose for the three samples were readily kept the same at 10 nmol/Kg insulin or its conjugate (for native insulin dose, 10 nmol/kg=1.5 IU/kg), by accurately controlling the feeding molar content of insulin for the conjugation reaction.
The in vivo bioavailability of insulin samples was evaluated by quantifying the area above the curve (AAC) of relative intensity of blood glucose concentration in FIG. 4B.

[2] = Hydrodynamic size by dynamic light scattering (DLS); type: physicochemical; conditions: pH 8.4 0.2M HEPES buffer, 25° C.; average±standard deviation, n=3
Description: The hydrodynamic sizes of the insulin and its conjugate samples were collected by a DLS method using a Malvern Nano-ZS Zetasizer at 25° C.
The hydrodynamic size of PCB-conjugated insulin was measured by a dynamic light scattering (DLS) method by using a Malvern Nano-ZS Zetasizer.

[3] = Circular dichroism secondary structure of insulin samples; type: physicochemical; conditions: far-UV CD, 0.2 mg/mL in 0.2 M pH 8.2 PBS buffer, CDSSTR analysis
Description: CD spectra were collected by using a Chirascan spectrophotometer from Applied Photophysics at 25° C. Insulin samples were dissolved in 0.2 M PBS buffer at 0.2 mg/ml. The […] CD spectra were measured from 200 to 250 nm with the light-path length of 1 mm. The scanning speed of CD spectra measurement was set at 200 nm/min. Each spectrum was the average of three scans to increase the signal-to-noise ratio of the measurements. The secondary structure proportions for insulin and its conjugates were analyzed using CDSSTR software.
The effect of polymer conjugation on the structure change of insulin was evaluated. Far-ultraviolet CD spectra were collected to quantify the effect of the zwitterionic polymer conjugation on insulin's secondary structure.

insulin receptor = target: T1, insulin receptor (Cricetulus griseus, UniProt A0A8C2MAM4); experiment: In vitro bioactivity assay of insulin (phosphorylated AKT at Ser473 in CHO-M 1 cells); type: cell-based; conditions: 10 μg/mL, 45 minutes, FIG. 4C
T1 construct: host or cells: CHO-M1 cells
Description: About 25,000 CHO-M 1 cells/well (ATCC) were seeded in a 96-well tissue culture treated plate and incubate for 24 h before being cultured in serum-free medium. […] Then cells were lysed and a commercially available kit (Cisbio) was used to assay phosphorylated AKT at Ser473. The fluorescence emission at 665 and 620 nm was measured on a HTRF reader (BioTek, USA).
The relative activity was presented as the percentage relative to native insulin±standard deviation (n=6) * p<0.05, ** p<0.01, ns=not significant.

[4] = non-purified (rough) products, 10 nmol/Kg intravenous, FIG. 4A
[5] = purified conjugates, 10 nmol/kg intravenous, FIG. 4B

T1 sequence (A0A8C2MAM4 28-1372): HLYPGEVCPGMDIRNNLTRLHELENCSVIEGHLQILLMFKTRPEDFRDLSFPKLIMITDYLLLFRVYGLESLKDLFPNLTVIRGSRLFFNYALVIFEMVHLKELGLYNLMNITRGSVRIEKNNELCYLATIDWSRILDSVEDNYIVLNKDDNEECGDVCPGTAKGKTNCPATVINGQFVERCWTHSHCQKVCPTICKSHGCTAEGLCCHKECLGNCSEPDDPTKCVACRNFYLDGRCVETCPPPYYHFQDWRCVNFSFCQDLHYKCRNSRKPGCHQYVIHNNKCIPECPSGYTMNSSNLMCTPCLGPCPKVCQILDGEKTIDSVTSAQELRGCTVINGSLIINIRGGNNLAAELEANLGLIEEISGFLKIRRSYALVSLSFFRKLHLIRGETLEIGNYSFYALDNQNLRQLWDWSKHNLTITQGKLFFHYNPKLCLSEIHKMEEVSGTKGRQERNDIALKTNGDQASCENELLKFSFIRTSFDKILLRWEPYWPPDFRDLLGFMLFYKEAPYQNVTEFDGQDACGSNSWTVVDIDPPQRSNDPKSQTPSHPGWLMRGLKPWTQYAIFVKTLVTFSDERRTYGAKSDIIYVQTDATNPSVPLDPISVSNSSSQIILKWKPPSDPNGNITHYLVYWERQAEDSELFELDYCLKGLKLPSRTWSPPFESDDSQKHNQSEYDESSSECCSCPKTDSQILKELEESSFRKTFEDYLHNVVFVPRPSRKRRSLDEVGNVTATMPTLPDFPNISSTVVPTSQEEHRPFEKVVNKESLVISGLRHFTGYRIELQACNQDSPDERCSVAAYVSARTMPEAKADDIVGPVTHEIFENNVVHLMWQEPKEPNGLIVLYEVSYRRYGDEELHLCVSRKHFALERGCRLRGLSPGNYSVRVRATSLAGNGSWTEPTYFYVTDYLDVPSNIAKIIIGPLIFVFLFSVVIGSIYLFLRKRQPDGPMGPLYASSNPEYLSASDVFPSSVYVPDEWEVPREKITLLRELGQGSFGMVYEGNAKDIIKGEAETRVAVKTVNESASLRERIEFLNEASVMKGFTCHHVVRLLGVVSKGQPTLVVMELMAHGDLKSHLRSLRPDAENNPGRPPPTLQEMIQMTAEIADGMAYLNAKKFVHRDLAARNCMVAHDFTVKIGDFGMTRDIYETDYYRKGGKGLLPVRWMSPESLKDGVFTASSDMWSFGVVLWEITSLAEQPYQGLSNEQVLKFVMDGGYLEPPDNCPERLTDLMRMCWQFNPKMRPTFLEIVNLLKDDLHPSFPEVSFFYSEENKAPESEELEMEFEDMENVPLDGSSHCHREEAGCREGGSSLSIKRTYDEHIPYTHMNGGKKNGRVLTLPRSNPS

| Substance | blood glucose lowering ability compared with native insulin [1, 4] | blood glucose lowering ability compared with native insulin [1, 5] | hydrodynamic size [2] [nm] | Random coil (secondary structure proportion) [3] [%] | activity lost in vitro compared with native insulin (insulin receptor) |
| --- | --- | --- | --- | --- | --- |
| PCB-insulin: Conjugate of human recombinant insulin with NHS ester terminated zwitterionic carboxybetaine polymer (~5000 Da), one chain per insulin, prioritized at LysB29 | significantly higher blood glucose lowering ability than native insulin | even higher blood glucose lowering ability than native insulin |  |  |  |
| PEG-insulin: Comparison conjugate of human recombinant insulin with commercially available PEG-NHS (5000 Da) | similar | did not show any better glucose lowering effect than native insulin | 4.2±0.7 | 30 | about 27% |
